Measurements as given in article PMC5218480 (PLoS ONE, 2017).

System: MV-4-11 cells
Experiment: Gene expression microarray analysis (Affymetrix PrimeView) and GSEA
Format: cell-based, human
Set-up: RFU PODN (11730768_x_at) / Fold change /veh PODN (11730768_x_at) / RFU LINC00158 (11744669_a_at) / Fold change /veh LINC00158 (11744669_a_at) / RFU DUSP10 (11751237_a_at) / Fold change /veh DUSP10 (11751237_a_at) / RFU ID3 (11757404_x_at) / Fold change /veh ID3 (11757404_x_at) / RFU PLEKHG5 (11737974_s_at) / Fold change /veh PLEKHG5 (11737974_s_at) / RFU LRRC4B (11730491_at) / Fold change /veh LRRC4B (11730491_at) / RFU GIMAP4 (11747438_a_at) / Fold change /veh GIMAP4 (11747438_a_at) / RFU KRT8 (11758183_x_at) / Fold change /veh KRT8 (11758183_x_at) / RFU CNN1 (11734310_a_at) / Fold change /veh CNN1 (11734310_a_at) / RFU VPS37D (11726825_at) / Fold change /veh VPS37D (11726825_at) / RFU C10orf10 (11716522_x_at) / Fold change /veh C10orf10 (11716522_x_at) / RFU KIR2DL2 /// KIR2DL4 /// KIR2DL5A /// KIR2DL5B /// KIR2DS1 /// KIR2DS2 /// KIR2DS3 /// KIR2DS4 /// KIR3DL3 /// KIR3DL3 /// KIR3DS1 (11738374_at) / Fold change /veh KIR2DL2 /// KIR2DL4 /// KIR2DL5A /// KIR2DL5B /// KIR2DS1 /// KIR2DS2 /// KIR2DS3 /// KIR2DS4 /// KIR3DL3 /// KIR3DL3 /// KIR3DS1 (11738374_at) / RFU C1QL1 (11718748_at) / Fold change /veh C1QL1 (11718748_at) / RFU TMPRSS4 (11747572_a_at) / Fold change /veh TMPRSS4 (11747572_a_at) / RFU HAMP (11756126_x_at) / Fold change /veh HAMP (11756126_x_at) / RFU RNFT2 (11725882_a_at) / Fold change /veh RNFT2 (11725882_a_at) / RFU NR4A2 (11747474_a_at) / Fold change /veh NR4A2 (11747474_a_at) / RFU ABCC12 (11746883_a_at) / Fold change /veh ABCC12 (11746883_a_at) / RFU TMEM136 (11760407_x_at) / Fold change /veh TMEM136 (11760407_x_at) / RFU CLDN22 /// WWC2 (11732394_at) / Fold change /veh CLDN22 /// WWC2 (11732394_at) / RFU HLA-DPB1 (11760878_x_at) / Fold change /veh HLA-DPB1 (11760878_x_at) / RFU SPINT1 (11716480_a_at) / Fold change /veh SPINT1 (11716480_a_at) / RFU GAP43 (11754022_s_at) / Fold change /veh GAP43 (11754022_s_at) / RFU A4GNT (11735810_at) / Fold change /veh A4GNT (11735810_at) / RFU PRB3 (11715151_x_at) / Fold change /veh PRB3 (11715151_x_at) / RFU TUBB4B (11761932_at) / Fold change /veh TUBB4B (11761932_at) / RFU CAPN14 (11732068_a_at) / Fold change /veh CAPN14 (11732068_a_at) / RFU TMCC2 (11721928_a_at) / Fold change /veh TMCC2 (11721928_a_at) / RFU IRGQ (11745062_a_at) / Fold change /veh IRGQ (11745062_a_at) / RFU FAM174B (11720279_a_at) / Fold change /veh FAM174B (11720279_a_at) / RFU TMPRSS4 (11748680_a_at) / Fold change /veh TMPRSS4 (11748680_a_at) / RFU FAM212B (11763350_a_at) / Fold change /veh FAM212B (11763350_a_at) / RFU PLEKHG5 (11743358_a_at) / Fold change /veh PLEKHG5 (11743358_a_at) / RFU ZSCAN30 (11745921_a_at) / Fold change /veh ZSCAN30 (11745921_a_at) / RFU CMKLR1 (11741424_a_at) / Fold change /veh CMKLR1 (11741424_a_at) / RFU LOC101060620 /// MAPK8IP1 (11723275_at) / Fold change /veh LOC101060620 /// MAPK8IP1 (11723275_at) / RFU SPTSSB (11747773_x_at) / Fold change /veh SPTSSB (11747773_x_at) / RFU PRSS12 (11739890_at) / Fold change /veh PRSS12 (11739890_at) / RFU BIN1 (11741810_x_at) / Fold change /veh BIN1 (11741810_x_at) / RFU WNT11 (11732464_a_at) / Fold change /veh WNT11 (11732464_a_at) / RFU C10orf10 (11716521_a_at) / Fold change /veh C10orf10 (11716521_a_at) / RFU C5orf56 (11738089_at) / Fold change /veh C5orf56 (11738089_at) / RFU CYB561 (11721691_x_at) / Fold change /veh CYB561 (11721691_x_at) / RFU ANKRD19P (11752326_a_at) / Fold change /veh ANKRD19P (11752326_a_at) / RFU OR2T12 /// OR2T33 /// OR2T8 (11738714_s_at) / Fold change /veh OR2T12 /// OR2T33 /// OR2T8 (11738714_s_at) / RFU VCAN (11748164_a_at) / Fold change /veh VCAN (11748164_a_at) / RFU JSRP1 (11732532_at) / Fold change /veh JSRP1 (11732532_at) / RFU KRTAP10-11 (11738290_x_at) / Fold change /veh KRTAP10-11 (11738290_x_at) / RFU MYO3A (11730013_a_at) / Fold change /veh MYO3A (11730013_a_at) / RFU EBF3 (11725865_a_at) / Fold change /veh EBF3 (11725865_a_at) / RFU CAMK2N1 (11719241_x_at) / Fold change /veh CAMK2N1 (11719241_x_at) / RFU C5orf56 (11738088_a_at) / Fold change /veh C5orf56 (11738088_a_at) / RFU OLFML3 (11715873_a_at) / Fold change /veh OLFML3 (11715873_a_at) / RFU LOC100653217 /// NTM (11731650_a_at) / Fold change /veh LOC100653217 /// NTM (11731650_a_at) / RFU MAPK11 (11762145_a_at) / Fold change /veh MAPK11 (11762145_a_at) / RFU FIZ1 (11724087_x_at) / Fold change /veh FIZ1 (11724087_x_at) / RFU OASL (11726364_x_at) / Fold change /veh OASL (11726364_x_at) / RFU SOX15 (11748057_x_at) / Fold change /veh SOX15 (11748057_x_at) / RFU CD79A (11719716_a_at) / Fold change /veh CD79A (11719716_a_at) / RFU HIST1H1D (11736915_at) / Fold change /veh HIST1H1D (11736915_at) / RFU CASKIN2 (11723855_a_at) / Fold change /veh CASKIN2 (11723855_a_at) / RFU LOC730098 (11760151_x_at) / Fold change /veh LOC730098 (11760151_x_at) / RFU OR4N2 (11742367_at) / Fold change /veh OR4N2 (11742367_at) / RFU PRRT2 (11749266_a_at) / Fold change /veh PRRT2 (11749266_a_at) / RFU SNX32 (11753110_a_at) / Fold change /veh SNX32 (11753110_a_at) / RFU CDHR5 (11726645_a_at) / Fold change /veh CDHR5 (11726645_a_at) / RFU RCAN1 (11760418_a_at) / Fold change /veh RCAN1 (11760418_a_at) / RFU FAM167A (11723789_a_at) / Fold change /veh FAM167A (11723789_a_at) / RFU FAM26E (11764081_at) / Fold change /veh FAM26E (11764081_at) / RFU ISYNA1 (11749810_s_at) / Fold change /veh ISYNA1 (11749810_s_at) / RFU ACY1 (11761880_at) / Fold change /veh ACY1 (11761880_at) / RFU 11764098_at / Fold change /veh 11764098_at / RFU SAMD14 (11745864_x_at) / Fold change /veh SAMD14 (11745864_x_at) / RFU NPB (11741838_a_at) / Fold change /veh NPB (11741838_a_at) / RFU TMPRSS6 (11731388_a_at) / Fold change /veh TMPRSS6 (11731388_a_at) / RFU KRTAP10-2 (11738614_at) / Fold change /veh KRTAP10-2 (11738614_at) / RFU ARHGAP8 /// PRR5-ARHGAP8 (11727945_x_at) / Fold change /veh ARHGAP8 /// PRR5-ARHGAP8 (11727945_x_at) / RFU KRTAP5-7 /// NADSYN1 (11734609_at) / Fold change /veh KRTAP5-7 /// NADSYN1 (11734609_at) / RFU RASL12 (11751679_a_at) / Fold change /veh RASL12 (11751679_a_at) / RFU CDKN2B (11736163_a_at) / Fold change /veh CDKN2B (11736163_a_at) / RFU PRF1 (11729649_at) / Fold change /veh PRF1 (11729649_at) / RFU, ZNF638 /// ZNF638-IT1 / Fold change vs veh, ZNF638 /// ZNF638-IT1 / RFU, PANK3 / Fold change vs veh, PANK3 / RFU, SH3YL1 / Fold change vs veh, SH3YL1 / RFU, ZEB2 / Fold change vs veh, ZEB2 / RFU, NRIP1 / Fold change vs veh, NRIP1 / RFU, PTTG1IP / Fold change vs veh, PTTG1IP / RFU, CAPN2 / Fold change vs veh, CAPN2 / RFU, MED14 / Fold change vs veh, MED14 / RFU, SNORA58 / Fold change vs veh, SNORA58 / RFU, C1orf63 / Fold change vs veh, C1orf63 / RFU, LRRFIP1 / Fold change vs veh, LRRFIP1 / RFU, NDUFAF7 / Fold change vs veh, NDUFAF7 / RFU, SLC12A2 / Fold change vs veh, SLC12A2 / RFU, IBTK / Fold change vs veh, IBTK / RFU, ESF1 / Fold change vs veh, ESF1 / Fold change vs veh, TMEM50B / RFU, TAOK1 / Fold change vs veh, TAOK1 / RFU, ACBD3 / Fold change vs veh, ACBD3 / RFU, TMA16 / Fold change vs veh, TMA16 / RFU, RWDD3 / Fold change vs veh, RWDD3 / RFU, BCAT1 / Fold change vs veh, BCAT1 / RFU, EDEM3 / Fold change vs veh, EDEM3 / RFU, TMEM33 / Fold change vs veh, TMEM33 / RFU, WDR75 / Fold change vs veh, WDR75 / RFU, AHCTF1 / Fold change vs veh, AHCTF1 / RFU, TFRC / Fold change vs veh, TFRC / RFU, ZDHHC17 / Fold change vs veh, ZDHHC17 / RFU, NOM1 / Fold change vs veh, NOM1 / RFU, ARL8B / Fold change vs veh, ARL8B / RFU, ZBTB11 / Fold change vs veh, ZBTB11 / RFU, TAMM41 / Fold change vs veh, TAMM41 / RFU, KIAA1704 /// LOC100996395 / Fold change vs veh, KIAA1704 /// LOC100996395 / RFU, ING1 / Fold change vs veh, ING1 / RFU, TRMT61B / Fold change vs veh, TRMT61B / RFU, FUBP3 / Fold change vs veh, FUBP3 / RFU, TP53 / Fold change vs veh, TP53 / RFU, TNKS2 / Fold change vs veh, TNKS2 / RFU, ZFP14 / Fold change vs veh, ZFP14 / RFU, ACTR2 / Fold change vs veh, ACTR2 / RFU, PPP3R1 / Fold change vs veh, PPP3R1 / RFU, PIK3R1 / Fold change vs veh, PIK3R1 / RFU, HNRNPA1 / Fold change vs veh, HNRNPA1 / RFU, RNF170 / Fold change vs veh, RNF170 / RFU, ZNF28 / Fold change vs veh, ZNF28 / RFU, RNGTT / Fold change vs veh, RNGTT / RFU, OGT / Fold change vs veh, OGT / RFU, BRD1 / Fold change vs veh, BRD1 / RFU, MARS / Fold change vs veh, MARS / RFU, ZNF655 / Fold change vs veh, ZNF655 / RFU, FAHD1 / Fold change vs veh, FAHD1 / RFU, BDP1 / Fold change vs veh, BDP1 / RFU, LRRCC1 / Fold change vs veh, LRRCC1 / RFU, ARID1A / Fold change vs veh, ARID1A / RFU, ZNF146 / Fold change vs veh, ZNF146 / RFU, ZNF330 / Fold change vs veh, ZNF330 / RFU, GPN3 / Fold change vs veh, GPN3 / RFU, C9orf123 / Fold change vs veh, C9orf123 / RFU, N4BP2L2 / Fold change vs veh, N4BP2L2 / RFU, ARFIP1 / Fold change vs veh, ARFIP1 / RFU, FAM179B / Fold change vs veh, FAM179B / RFU, BCL10 / Fold change vs veh, BCL10 / RFU, UHRF1BP1L / Fold change vs veh, UHRF1BP1L / RFU, BET1 / Fold change vs veh, BET1 / RFU, CNOT2 / Fold change vs veh, CNOT2 / RFU, ZNF268 / Fold change vs veh, ZNF268 / Fold change vs veh, ZNF507 / RFU, DGCR2 / Fold change vs veh, DGCR2 / RFU, WDSUB1 / Fold change vs veh, WDSUB1 / Fold change vs veh, HSP90B1 /// MIR3652 / RFU, ADSS / Fold change vs veh, ADSS / RFU, GK / Fold change vs veh, GK / RFU, ZNF148 / Fold change vs veh, ZNF148 / RFU, TAF9 / Fold change vs veh, TAF9 / RFU, SLC1A5 / Fold change vs veh, SLC1A5 / RFU, SLMO2 / Fold change vs veh, SLMO2 / RFU, ABCC4 / Fold change vs veh, ABCC4 / RFU, LOC101060439 /// RAP1B / Fold change vs veh, LOC101060439 /// RAP1B / RFU, RFX7 / Fold change vs veh, RFX7 / RFU, GTPBP10 / Fold change vs veh, GTPBP10 / RFU, CNEP1R1 / Fold change vs veh, CNEP1R1 / RFU, BIVM-ERCC5 /// ERCC5 / Fold change vs veh, BIVM-ERCC5 /// ERCC5 / RFU, ILF3 / Fold change vs veh, ILF3 / RFU 11762660_at / Fold change /veh 11762660_at / RFU VCAN (11757783_s_at) / Fold change /veh VCAN (11757783_s_at) / RFU DDX43 (11728927_at) / Fold change /veh DDX43 (11728927_at) / RFU KRT8 (11758188_x_at) / Fold change /veh KRT8 (11758188_x_at) / RFU NKD1 (11759106_at) / Fold change /veh NKD1 (11759106_at) / RFU SRD5A1 (11742802_a_at) / Fold change /veh SRD5A1 (11742802_a_at) / RFU TPSAB1 /// TPSB2 (11721975_s_at) / Fold change /veh TPSAB1 /// TPSB2 (11721975_s_at) / RFU GSTM3 (11746129_a_at) / Fold change /veh GSTM3 (11746129_a_at) / RFU IL23R (11737362_x_at) / Fold change /veh IL23R (11737362_x_at) / RFU TMEM51 (11727254_a_at) / Fold change /veh TMEM51 (11727254_a_at) / RFU PIWIL2 (11732686_x_at) / Fold change /veh PIWIL2 (11732686_x_at) / RFU ORM1 (11744905_x_at) / Fold change /veh ORM1 (11744905_x_at) / RFU CCDC152 (11743942_at) / Fold change /veh CCDC152 (11743942_at) / RFU ECM1 (11717891_a_at) / Fold change /veh ECM1 (11717891_a_at) / RFU IL23R (11748794_a_at) / Fold change /veh IL23R (11748794_a_at) / RFU TNFAIP8L3 (11732012_x_at) / Fold change /veh TNFAIP8L3 (11732012_x_at) / RFU MBOAT4 (11741988_at) / Fold change /veh MBOAT4 (11741988_at) / RFU 11764193_at / Fold change /veh 11764193_at / RFU TMEM53 (11763286_at) / Fold change /veh TMEM53 (11763286_at) / RFU MAGEB2 (11727129_at) / Fold change /veh MAGEB2 (11727129_at) / RFU TMEM200A (11744735_a_at) / Fold change /veh TMEM200A (11744735_a_at) / RFU CCDC152 (11751479_a_at) / Fold change /veh CCDC152 (11751479_a_at) / RFU FAM211A (11726209_a_at) / Fold change /veh FAM211A (11726209_a_at) / RFU RGS16 (11746705_a_at) / Fold change /veh RGS16 (11746705_a_at) / RFU VCAN (11755009_s_at) / Fold change /veh VCAN (11755009_s_at) / RFU RHOB (11743442_s_at) / Fold change /veh RHOB (11743442_s_at) / RFU RGS16 (11720943_a_at) / Fold change /veh RGS16 (11720943_a_at) / RFU RGS16 (11720944_at) / Fold change /veh RGS16 (11720944_at) / RFU, VPS4B / Fold change vs veh, VPS4B / RFU, CREB1 / Fold change vs veh, CREB1 / RFU, DNAJC13 / Fold change vs veh, DNAJC13 / RFU, GNAQ / Fold change vs veh, GNAQ / RFU, CDK5R1 / Fold change vs veh, CDK5R1 / RFU, ZRANB3 / Fold change vs veh, ZRANB3 / RFU, CUL4A / Fold change vs veh, CUL4A / RFU, CCNY / Fold change vs veh, CCNY / RFU, UFL1 / Fold change vs veh, UFL1 / RFU, COG3 / Fold change vs veh, COG3 / RFU, DIAPH2 / Fold change vs veh, DIAPH2 / RFU, SKA2 / Fold change vs veh, SKA2 / RFU, AFF3 / Fold change vs veh, AFF3 / RFU, LMF1 / Fold change vs veh, LMF1 / RFU, IPO11 / Fold change vs veh, IPO11 / RFU, DFFB / Fold change vs veh, DFFB / RFU, FOXP1 / Fold change vs veh, FOXP1 / RFU, CARD8 / Fold change vs veh, CARD8 / RFU, STRN3 / Fold change vs veh, STRN3 / RFU, ADK / Fold change vs veh, ADK / RFU, RASSF2 / Fold change vs veh, RASSF2 / RFU, WIPF1 / Fold change vs veh, WIPF1 / RFU, LARP1B / Fold change vs veh, LARP1B / RFU, RASA1 / Fold change vs veh, RASA1 / RFU, RB1 / Fold change vs veh, RB1 / RFU, PPFIA1 / Fold change vs veh, PPFIA1 / RFU, MAT2A / Fold change vs veh, MAT2A / RFU, CCT5 / Fold change vs veh, CCT5 / RFU, WDR92 / Fold change vs veh, WDR92 / RFU, CUX1 / Fold change vs veh, CUX1 / RFU, TTC7A / Fold change vs veh, TTC7A / RFU, TMEM135 / Fold change vs veh, TMEM135 / RFU, DEPTOR / Fold change vs veh, DEPTOR / RFU, CPM / Fold change vs veh, CPM / RFU, DNAJB6 / Fold change vs veh, DNAJB6 / RFU, CACNA2D3 / Fold change vs veh, CACNA2D3 / RFU, DTX4 / Fold change vs veh, DTX4 / RFU, TFCP2 / Fold change vs veh, TFCP2 / RFU, GMCL1 /// GMCL1P1 / Fold change vs veh, GMCL1 /// GMCL1P1 / RFU, AEBP2 / Fold change vs veh, AEBP2 / RFU, SNHG1 /// SNORD22 /// SNORD25 /// SNORD26 /// SNORD27 /// SNORD28 /// SNORD29 /// SNORD31 / Fold change vs veh, SNHG1 /// SNORD22 /// SNORD25 /// SNORD26 /// SNORD27 /// SNORD28 /// SNORD29 /// SNORD31 / Fold change (Aza/veh), C12orf56 (ProbeSet 11735607_a_at) / Fold change (ACY-1035/veh), C12orf56 (ProbeSet 11735607_a_at) / Fold change (Aza/veh), FGFR1OP (ProbeSet 11751329_s_at) / Fold change (ACY-1035/veh), FGFR1OP (ProbeSet 11751329_s_at) / Fold change (Aza/veh), VPS36 (ProbeSet 11739960_a_at) / Fold change (ACY-1035/veh), VPS36 (ProbeSet 11739960_a_at) / RFU SYPL1 (11715823_x_at) / Fold change /veh SYPL1 (11715823_x_at) / RFU IGFBP7 (11715501_s_at) / Fold change /veh IGFBP7 (11715501_s_at) / RFU REEP3 (11722064_at) / Fold change /veh REEP3 (11722064_at) / RFU IGLL1 (11728026_x_at) / Fold change /veh IGLL1 (11728026_x_at): dose or concentration left out as unconfirmed
Conditions: ProbeSet 11752001_a_at; LIST D

Nc1ncn([C@@H]2O[C@H](CO)[C@@H](O)[C@H]2O)c(=O)n1 [azacitidine]
Fold change vs veh, CUL4A: 0.81
